Read-outs that look alike come from different tables or passages of the source.
Legend:
[1] = test system: barnyardgrass; assay: Test B pre-/postemergence herbicide test; format: in vivo, Echinochloa crus-galli
How it was run: (§1)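 Test chemicals in a non-phytotoxic solvent mixture with surfactant were applied preemergence to seeded species and postemergence to plants 2-18 cm tall (1- to 4-leaf stage); rice and barnyardgrass were also tested in a flooded paddy at the 2-leaf stage. Visual rating versus controls after 13-15 days in greenhouse, scale 0 (no effect) to 100 (complete control).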

[2] = test system: cocklebur; assay: Test B pre-/postemergence herbicide test; format: in vivo, Xanthium strumarium
How it was run: as §1

[3] = test system: corn; assay: Test B pre-/postemergence herbicide test; format: in vivo, Zea mays
How it was run: (§2)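 Flooded paddy rice and barnyardgrass were treated at the 2-leaf stage; upland plantings received compound either on sown seed or on 1- to 4-leaf seedlings. All were kept 13–15 days in a greenhouse and scored visually, 0–100, relative to untreated plants.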

[4] = test system: large crabgrass; assay: Test B pre-/postemergence herbicide test; format: in vivo, Digitaria sanguinalis
How it was run: as §2

[5] = test system: giant foxtail; assay: Test B pre-/postemergence herbicide test; format: in vivo, Setaria faberi; details: for pest or weed control at 125 g/ha / pest or weed control at 500 g/ha: Setaria faberi, 336 h
How it was run: as §2

[6] = test system: lambsquarters; assay: Test B pre-/postemergence herbicide test; format: in vivo, Chenopodium album; details: for pest or weed control at 125 g/ha / pest or weed control at 500 g/ha: Chenopodium album, 336 h
How it was run: as §2

[7] = test system: morningglory; assay: Test B pre-/postemergence herbicide test; format: in vivo, Ipomoea coccinea; details: for pest or weed control at 125 g/ha / pest or weed control at 500 g/ha: Ipomoea, 336 h
How it was run: as §1

[8] = test system: pigweed; assay: Test B pre-/postemergence herbicide test; format: in vivo, Amaranthus retroflexus
How it was run: as §2

[9] = test system: velvetleaf; assay: Test B pre-/postemergence herbicide test; format: in vivo, Abutilon theophrasti
How it was run: as §2

[10] = test system: blackgrass; assay: Test B postemergence herbicide test; format: in vivo, Alopecurus myosuroides; details: scale 0 (no effect) to 100 (complete control); for Plant response rating, Blackgrass: 500 g ai/ha, visual rating after 13 to 15 days
How it was run: (§3)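 Paddy species grown to the 2-leaf stage under flooding; blackgrass sprayed postemergence at 2–18 cm (1- to 4-leaf stage). Plants kept in a greenhouse for 13 to 15 days, then visually rated against controls on 0 (no effect) to 100 (complete control).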

[11] = test system: wild oat; assay: Test B postemergence herbicide test; format: in vivo, Avena fatua; details: scale 0 (no effect) to 100 (complete control); for Plant response rating, Oat, Wild: 500 g ai/ha, visual rating after 13 to 15 days
How it was run: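 Scale 0–100: zero equals no visible effect, 100 complete control, judged by eye relative to controls. Timing: 13 to 15 days in greenhouse post-treatment. Growth stage at spraying: two leaves (paddy) or one to four leaves, 2–18 cm (postemergence).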

[12] = test system: rice; assay: Test B flooded paddy test; format: in vivo, Oryza sativa; details: 1000 g ai/ha, visual rating, scale 0 to 100 (0 no effect, 100 complete control), 13 to 15 days
How it was run: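 After treating 2-leaf paddy plants or 2–18 cm postemergence plants (1 to 4 leaves) with formulated chemical, researchers kept them in a greenhouse for 13–15 days. Effects were judged visually versus controls: 0 indicates none, 100 total control.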

[13] = test system: small flower umbrella sedge; assay: Test B flooded paddy test; format: in vivo, Cyperus difformis; details: 1000 g ai/ha, visual rating, scale 0 to 100 (0 no effect, 100 complete control), 13 to 15 days
How it was run: as §3

[14] = test system: ducksalad; assay: Test B flooded paddy test; format: in vivo, Heteranthera limosa; details: 1000 g ai/ha, visual rating, scale 0 to 100 (0 no effect, 100 complete control), 13 to 15 days
How it was run: as §3

[15] = test system: barnyardgrass; assay: Test B flooded paddy test; format: in vivo, Echinochloa crus-galli; details: 1000 g ai/ha, visual rating, scale 0 to 100 (0 no effect, 100 complete control), 13 to 15 days
How it was run: as §3

[16] = Postemergence, 500 g ai/ha, visual rating after 13 to 15 days, scale 0 (no effect) to 100 (complete control)
[17] = Preemergence, 500 g ai/ha, scale 0 to 100
[18] = postemergence, 125 g ai/ha, visual rating, scale 0 (no effect) to 100 (complete control)
[19] = preemergence, 125 g ai/ha, 0 to 100 scale, 0 is no effect, 100 is complete control
[20] = postemergence, 125 g ai/ha, visual rating

CCn1nc(C(C)(C)C)cc1C(=O)Nc1cccc(C(=O)NCC(F)(F)F)c1 [Compound 43, 3-(1,1-dimethylethyl)-1-ethyl-N-[3-[[(2,2,2-trifluoroethyl)amino]carbonyl]-phenyl]-1H-pyrazole-5-carboxamide]
90%: pest or weed control at 500 g/ha ([2]; Xanthium strumarium, post-emergence, Postemergence, 500 g ai/ha, visual rating after 13 to 15 days, scale 0 (no effect) to 100 (complete control), read-out: Plant response rating, Cocklebur) | pest or weed control at 125 g/ha ([4]; Digitaria sanguinalis, post-emergence, Postemergence, 125 g ai/ha, scale 0 (no effect) to 100 (complete control), read-out: Crabgrass, Large plant response rating) | pest or weed control at 500 g/ha ([4]; Digitaria sanguinalis, post-emergence, Postemergence, 500 g ai/ha, visual rating after 13 to 15 days, scale 0 (no effect) to 100 (complete control), read-out: Plant response rating, Crabgrass, Large) | pest or weed control at 125 g/ha ([6]; post-emergence, Postemergence, 125 g ai/ha, scale 0 (no effect) to 100 (complete control), read-out: Lambsquarters plant response rating) | pest or weed control at 500 g/ha ([6]; post-emergence, Postemergence, 500 g ai/ha, visual rating after 13 to 15 days, scale 0 (no effect) to 100 (complete control), read-out: Plant response rating, Lambsquarters) | pest or weed control at 125 g/ha ([6]; pre-emergence, preemergence, 125 g ai/ha, 0 to 100 scale, 0 is no effect, 100 is complete control, read-out: Plant response rating, Lambsquarters) | pest or weed control at 500 g/ha ([9]; Abutilon theophrasti, post-emergence, 336 h, Postemergence, 500 g ai/ha, visual rating after 13 to 15 days, scale 0 (no effect) to 100 (complete control), read-out: Plant response rating, Velvetleaf)
30: Plant response rating, Oat, Wild ([11]; Postemergence)
50%: pest or weed control at 500 g/ha ([5]; post-emergence, Postemergence, 500 g ai/ha, visual rating after 13 to 15 days, scale 0 (no effect) to 100 (complete control), read-out: Plant response rating, Foxtail, Giant) | plant injury at 1000 g/ha ([12]; Oryza sativa, 336 h, read-out: Rice plant response rating)
20%: pest or weed control at 125 g/ha ([1]; Echinochloa crus-galli, post-emergence, Postemergence, 125 g ai/ha, scale 0 (no effect) to 100 (complete control), read-out: Barnyardgrass plant response rating) | plant injury at 125 g/ha ([3]; Zea mays, post-emergence, Postemergence, 125 g ai/ha, scale 0 (no effect) to 100 (complete control), read-out: Corn plant response rating) | pest or weed control at 125 g/ha ([10]; Alopecurus myosuroides, post-emergence, 336 h, Postemergence, 125 g ai/ha, read-out: Blackgrass plant response rating)
30%: Corn plant response rating (crop injury, 0 = no effect, 100 = complete kill) at 500 g/ha ([3]; Zea mays, post-emergence, Postemergence, 500 g ai/ha, visual rating after 13 to 15 days, scale 0 (no effect) to 100 (complete control)) | pest or weed control at 125 g/ha ([5]; post-emergence, Postemergence, 125 g ai/ha, scale 0 (no effect) to 100 (complete control), read-out: Foxtail, Giant plant response rating) | pest or weed control at 125 g/ha ([9]; Abutilon theophrasti, pre-emergence, 336 h, preemergence, 125 g ai/ha, 0 to 100 scale, 0 is no effect, 100 is complete control, read-out: Plant response rating, Velvetleaf)
100%: pest or weed control at 500 g/ha ([1]; Echinochloa crus-galli, pre-emergence, Preemergence, 500 g ai/ha, scale 0 to 100, read-out: Barnyardgrass plant response rating) | pest or weed control at 500 g/ha ([4]; Digitaria sanguinalis, pre-emergence, Preemergence, 500 g ai/ha, scale 0 to 100, read-out: Crabgrass, Large plant response rating) | pest or weed control at 500 g/ha ([6]; pre-emergence, Preemergence, 500 g ai/ha, scale 0 to 100, read-out: Lambsquarters plant response rating) | pest or weed control at 500 g/ha ([7]; post-emergence, Postemergence, 500 g ai/ha, visual rating after 13 to 15 days, scale 0 (no effect) to 100 (complete control), read-out: Plant response rating, Morningglory) | pest or weed control at 500 g/ha ([8]; Amaranthus retroflexus, post-emergence, 336 h, Postemergence, 500 g ai/ha, visual rating after 13 to 15 days, scale 0 (no effect) to 100 (complete control), read-out: Plant response rating, Pigweed) | pest or weed control at 500 g/ha ([8]; Amaranthus retroflexus, pre-emergence, 336 h, Preemergence, 500 g ai/ha, scale 0 to 100, read-out: Pigweed plant response rating) | pest or weed control at 125 g/ha ([8]; Amaranthus retroflexus, pre-emergence, 336 h, preemergence, 125 g ai/ha, 0 to 100 scale, 0 is no effect, 100 is complete control, read-out: Plant response rating, Pigweed) | pest or weed control at 500 g/ha ([9]; Abutilon theophrasti, pre-emergence, 336 h, Preemergence, 500 g ai/ha, scale 0 to 100, read-out: Velvetleaf plant response rating)
0%: pest or weed control at 125 g/ha ([7]; pre-emergence, preemergence, 125 g ai/ha, 0 to 100 scale, 0 is no effect, 100 is complete control, read-out: Plant response rating, Morningglory)
80%: pest or weed control at 500 g/ha ([5]; pre-emergence, Preemergence, 500 g ai/ha, scale 0 to 100, read-out: Foxtail, Giant plant response rating) | pest or weed control at 125 g/ha ([7]; post-emergence, Postemergence, 125 g ai/ha, scale 0 (no effect) to 100 (complete control), read-out: Morningglory plant response rating) | pest or weed control at 1000 g/ha ([15]; Echinochloa crus-galli, 336 h, read-out: Barnyardgrass plant response rating)
70%: pest or weed control at 500 g/ha ([1]; Echinochloa crus-galli, post-emergence, Postemergence, 500 g ai/ha, visual rating after 13 to 15 days, scale 0 (no effect) to 100 (complete control), read-out: Plant response rating, Barnyardgrass) | pest or weed control at 1000 g/ha ([13]; Cyperus difformis, 336 h, read-out: Sedge, Umbrella plant response rating) | pest or weed control at 1000 g/ha ([14]; Heteranthera limosa, 336 h, read-out: Ducksalad plant response rating)
20: Plant response rating, Blackgrass ([10]; Postemergence)
10%: pest or weed control at 125 g/ha ([2]; Xanthium strumarium, post-emergence, Postemergence, 125 g ai/ha, scale 0 (no effect) to 100 (complete control), read-out: Cocklebur plant response rating) | pest or weed control at 500 g/ha ([2]; Xanthium strumarium, pre-emergence, Preemergence, 500 g ai/ha, scale 0 to 100, read-out: Cocklebur plant response rating) | plant injury at 500 g/ha ([3]; Zea mays, pre-emergence, Preemergence, 500 g ai/ha, scale 0 to 100, read-out: Corn plant response rating) | pest or weed control at 125 g/ha ([5]; pre-emergence, preemergence, 125 g ai/ha, 0 to 100 scale, 0 is no effect, 100 is complete control, read-out: Plant response rating, Foxtail, Giant) | pest or weed control at 500 g/ha ([7]; pre-emergence, Preemergence, 500 g ai/ha, scale 0 to 100, read-out: Morningglory plant response rating) | pest or weed control at 125 g/ha ([11]; Avena fatua, post-emergence, 336 h, Postemergence, 125 g ai/ha, read-out: Oat, Wild plant response rating)

CCCn1nc(C(C)(C)C)cc1C(=O)Nc1cccc(C(=O)NCC)c1 [Compound 57]
100: Crabgrass, Large plant response rating [4, 17] | Foxtail, Giant plant response rating [5, 17] | Lambsquarters plant response rating [6, 17] | Plant response rating, Lambsquarters [6, 19] | Pigweed plant response rating [8, 17]
20: Plant response rating, Barnyardgrass [1, 16] | Plant response rating, Corn [3, 16] | Corn plant response rating [3, 18] | Plant response rating, Crabgrass, Large [4, 16] | Foxtail, Giant plant response rating [5, 18] | Plant response rating, Foxtail, Giant [5, 19] | Velvetleaf plant response rating [9, 18]
70: Barnyardgrass plant response rating [1, 17] | Lambsquarters plant response rating [6, 18] | Pigweed plant response rating [8, 18]
50: Plant response rating, Barnyardgrass [1, 19] | Ducksalad plant response rating [14]
10: Barnyardgrass plant response rating [1, 18] | Cocklebur plant response rating [2, 17] | Crabgrass, Large plant response rating [4, 18] | Plant response rating, Morningglory [7, 16] | Morningglory plant response rating [7, 18] | Plant response rating, Blackgrass ([10]; Postemergence)
80: Plant response rating, Pigweed [8, 16]
0: Plant response rating, Cocklebur [2, 19] | Corn plant response rating [3, 17] | Plant response rating, Corn [3, 19] | Morningglory plant response rating [7, 17] | Plant response rating, Morningglory [7, 19] | Velvetleaf plant response rating [9, 17] | Plant response rating, Velvetleaf [9, 19] | Blackgrass plant response rating [10, 20]
40: Plant response rating, Crabgrass, Large [4, 19]
30: Cocklebur plant response rating [2, 18] | Plant response rating, Foxtail, Giant [5, 16] | Plant response rating, Velvetleaf [9, 16] | Plant response rating, Oat, Wild ([11]; Postemergence) | Oat, Wild plant response rating [11, 20]
60: Plant response rating, Cocklebur [2, 16] | Rice plant response rating [12] | Sedge, Umbrella plant response rating [13] | Barnyardgrass plant response rating [15]
90: Plant response rating, Lambsquarters [6, 16] | Plant response rating, Pigweed [8, 19]

Source: patent US20060069132A1, “Azolecarboxamide herbicides” (priority 2004, published 2006)
